Data reported in patent US10052306B2 (LUC THERAPEUTICS, INC., priority 2013, dated 2018).

Molecular target: NR1/NR2B (Homo sapiens (Human), UniProt Q05586+Q13224)
Experiment: Cell assay: FDSS Ca2+ influx inhibition in HEK293 cells expressing NR1/NR2B;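 further: Fluo-8 Ca2+ signal read on Hamamatsu FDSS 6000 after glutamate, glycine and Ca2+ challenge following 10 min compound preincubation, end/baseline fluorescence ratio compared with MK801 control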
Conditions: Ca2+ influx
[1] = Binned Activity, HEK293 cells expressing NR1/NR2B, binned NR2B NAM IC50
[2] = NR2B NAM IC50, HEK293 cells expressing NR1/NR2B

Sequence of NR1/NR2B (Q13224 27-1484, other chains not shown): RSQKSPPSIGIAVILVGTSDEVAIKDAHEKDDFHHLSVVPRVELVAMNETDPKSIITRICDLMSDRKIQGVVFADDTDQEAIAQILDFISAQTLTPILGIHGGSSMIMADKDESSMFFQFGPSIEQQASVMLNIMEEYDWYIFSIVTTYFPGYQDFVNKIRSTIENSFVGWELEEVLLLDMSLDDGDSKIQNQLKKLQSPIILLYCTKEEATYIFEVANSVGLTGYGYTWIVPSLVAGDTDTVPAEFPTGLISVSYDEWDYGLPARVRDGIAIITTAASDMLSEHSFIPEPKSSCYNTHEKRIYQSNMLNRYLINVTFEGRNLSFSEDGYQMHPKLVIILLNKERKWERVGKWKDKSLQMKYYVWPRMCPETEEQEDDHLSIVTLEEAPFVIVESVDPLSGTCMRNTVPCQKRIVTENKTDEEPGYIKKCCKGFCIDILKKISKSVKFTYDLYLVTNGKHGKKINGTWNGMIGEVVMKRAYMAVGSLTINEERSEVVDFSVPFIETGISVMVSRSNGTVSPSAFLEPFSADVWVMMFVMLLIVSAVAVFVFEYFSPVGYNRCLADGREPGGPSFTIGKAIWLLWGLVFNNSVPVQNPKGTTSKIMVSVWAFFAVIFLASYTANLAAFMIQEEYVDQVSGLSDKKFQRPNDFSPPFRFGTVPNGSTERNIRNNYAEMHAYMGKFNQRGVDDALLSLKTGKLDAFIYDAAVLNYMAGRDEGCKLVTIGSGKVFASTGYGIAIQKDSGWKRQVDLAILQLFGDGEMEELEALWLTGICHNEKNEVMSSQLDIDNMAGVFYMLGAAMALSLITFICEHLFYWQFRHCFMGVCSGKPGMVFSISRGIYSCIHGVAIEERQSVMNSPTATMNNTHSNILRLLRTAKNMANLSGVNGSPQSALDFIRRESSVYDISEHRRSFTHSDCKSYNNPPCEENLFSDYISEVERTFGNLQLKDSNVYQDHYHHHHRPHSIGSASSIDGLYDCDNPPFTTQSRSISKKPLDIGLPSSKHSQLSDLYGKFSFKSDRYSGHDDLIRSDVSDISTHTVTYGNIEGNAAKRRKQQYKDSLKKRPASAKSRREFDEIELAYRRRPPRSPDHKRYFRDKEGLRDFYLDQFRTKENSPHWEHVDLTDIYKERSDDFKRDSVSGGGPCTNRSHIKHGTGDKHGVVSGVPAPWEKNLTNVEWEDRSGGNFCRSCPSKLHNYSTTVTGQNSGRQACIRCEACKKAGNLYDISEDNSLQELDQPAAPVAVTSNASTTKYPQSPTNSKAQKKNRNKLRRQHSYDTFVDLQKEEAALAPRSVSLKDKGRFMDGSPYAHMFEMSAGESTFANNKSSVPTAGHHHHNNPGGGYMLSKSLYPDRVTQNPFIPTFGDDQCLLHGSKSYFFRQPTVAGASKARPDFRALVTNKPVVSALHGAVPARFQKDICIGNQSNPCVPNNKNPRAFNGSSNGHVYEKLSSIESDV
Method: Cell Culture and plating: HEK293 cells expressing NR1/NR2B (Chantest, Cleveland, Ohio) were grown to 70-80% confluency as an adherent monolayer in standard tissue culture flasks at 37° C., 5% CO2 per supplier's instructions. NR2B expression was induced by incubation with 0.3-0.4 μg/ml tetracycline in the presence of 4 mM ARL-15896 for 18-24 hours under the same growth conditions, then transferred to 30° C. for another 3-5 hours.
After induction, cell culture medium was removed and cells were rinsed once with Ca^2+ and Mg^2+-free Dulbecco's phosphate buffered saline. Cells were then removed from the flask using TrypLE™ Express (Life Technologies) according to the manufacturer's instructions and collected to 50 ml centrifuge tubes. Following two washes in Ca^2+/Mg^2+-free HBSS with 20 mM HEPES (HHnoCa), cells were counted and viability assessed using trypan blue. To load cells with Ca^2+-sensitive dye, they were resuspended in fluo-8 plus Component B (AAT Bioquest Products) diluted in HHnoCa and incubated 15 minutes at 37° C., followed by 30 minutes at room temp (in dark). Cells were then washed and resuspended in HHnoCa to remove extracellular dye and plated in 384-well plates (Falcon, uncoated) at 20,000-30,000 cells/well in a final volume of 25 μl/well.
FDSS Assay: To each well of the plate, 10 μL test compound, control (MK801) or HHnoCa buffer was added to a final concentration of 10 μM with a final concentration of DMSO of 0.1%. Following 10 minutes pre-incubation in the dark, plates are loaded onto the Hamamatsu FDSS 6000. After collecting baseline fluorescence images, 3 μM glutamate, 3 glycine, and 1 mM Ca^2+ in HHnoCa buffer is added to each well, and Ca^2+ is recorded for 3 minutes. Data were processed by computing ratio of fluorescence at the end of data collection to baseline fluorescence to assess degree of Ca′ influx inhibition relative to that observed in MK801.

| IC50 [1] [µM] | IC50 [2] [µM] | SMILES |
| --- | --- | --- |
| > 10 |  | COc1cccc([C@]2(O)C[C@H]3CN(C(=O)Nc4cccnc4)C[C@H]3C2)c1 [Cmpd 46, 5-hydroxy-5-(3-methoxyphenyl)-N-(pyridin-3-yl)-octahydrocyclopenta[c] pyrrole-2-carboxamide] |
| > 10 | ≥ 10 | CC(C(=O)c1ccc(O)cc1)N1C[C@@H]2C[C@@](O)(c3ccc(F)cc3)C[C@@H]2C1 (mixture of isomers) [Example 92, rac-2-[5-(4-fluorophenyl)-5-hydroxy-octahydrocyclopenta[c]pyrrol-2-yl]-1-(4-hydroxyphenyl)propan-1-one] |
| > 10 |  | CC(C)(O)c1ccc(C(=O)CN2C[C@@H]3C[C@@](O)(c4ccccc4)C[C@@H]3C2)cc1 [Example 68, 2-(5-hydroxy-5-phenylhexahydrocyclo-penta[c]pyrrol-2(1H)-yl)-2-(4-(2-hydroxypropan-2-yl)phenyl)ethanone] |
| > 10 | ≥ 10 | CC(C)(C)c1ccc([C@]2(O)C[C@H]3CN(CC(O)c4cccc(F)c4)C[C@H]3C2)cc1 (mixture of isomers) [Example 71, rac-5-(4-tert-butylphenyl)-2-[2-(3-fluorophenyl)-2-hydroxyethyl]-octahydrocyclopenta[c] pyrrol-5-ol] |
| > 10 | ≥ 10 | COc1cccc([C@]2(O)C[C@H]3CN(CC(O)c4ccc(Cl)cc4Cl)C[C@H]3C2)c1 (mixture of isomers) [Example 74, rac-2-[2-(2,4-dichlorophenyl)-2-hydroxyethyl]-5-(3-methoxyphenyl)-octahydrocyclopenta[c] pyrrol-5-ol] |
|  | 0.0757 | Cc1cc(F)ccc1C[C@]1(O)C[C@H]2CN(CC(O)c3ccc(O)cn3)C[C@H]2C1 (mixture of isomers) [Example 243, rac-(3aR,5r,6aS)-5-(4-fluoro-2-methylbenzyl)-2-(2-hydroxy-2-(5-hydroxypyridin-2-yl)ethyl)octahydrocyclo-penta[c]pyrrol-5-ol] |
|  | 0.0315 | Oc1ccc(C(O)CN2C[C@@H]3C[C@@](O)(Cc4ccc(F)c(F)c4)C[C@@H]3C2)cc1 (mixture of isomers) [Example 253, rac-(3aR,5r,6aS)-5-(3,4-difluorobenzyl)-2-(2-hydroxy-2-(4-hydroxyphenyl)ethyl) octahydrocyclopenta[c] pyrrol-5-ol] |
| > 10 | ≥ 10 | COc1cccc(NC(=O)N2C[C@@H]3C[C@@](O)(c4ccc(C(C)(C)C)cc4)C[C@@H]3C2)c1 [Example 51] |
|  | 0.0122 | Oc1ccc(C(O)CN2C[C@H]3C[C@@H](Cc4ccccc4)C[C@H]3C2)cc1F (mixture of isomers) [Example 301, rac-4-{2-[(3aR,5S,6aS)-5-benzyl-octahydrocyclopenta[c]pyrrol-2-yl]-1-hydroxyethyl}-2-fluorophenol] |
| < 0.1 | 0.0743 | Oc1ccc(C(O)CN2C[C@H]3CN(Cc4ccccc4)C[C@H]3C2)cc1F (mixture of isomers) [Example 341, rac-4-(2-(5-benzylhexahydropyrrolo [3,4-c]pyrrol-2(1H)-yl)-1-hydroxyethyl)-2-fluorophenol] |
| > 10 |  | COc1ccccc1CNC(=O)N1C[C@@H]2C[C@@](O)(c3ccccc3)C[C@@H]2C1 [Example 21, 5-hydroxy-N-[(2-methoxyphenyl)methyl]-5-phenyl-octahydrocyclopenta[c] pyrrole-2-carboxamide] |
| < 0.1 | 0.0193 | Oc1ccc(C(O)CN2C[C@@H]3C[C@@](O)(Cc4cccs4)C[C@@H]3C2)cc1F (mixture of isomers) [Example 222, rac-2-(2-(3-fluoro-4-hydroxyphenyl)-2-hydroxyethyl)-5-(thiophen-2-ylmethyl)octahydrocyclo-penta[c]pyrrol-5-ol] |
| > 10 | ≥ 10 | Oc1cnc(C(O)CN2C[C@@H]3C[C@@](O)(Cc4ccccc4)C[C@@H]3C2)cn1 (mixture of isomers) [Example 188, rac-(3aR,5r,6aS)-5-benzyl-2-(2-hydroxy-2-(5-hydroxypyrazin-2-yl)ethyl)octahydrocyclo-penta[c]pyrrol-5-ol] |
| < 0.1 | 0.0155 | Oc1ccc(C(O)CN2C[C@@H]3C[C@@](O)(Cc4ccccc4F)C[C@@H]3C2)cc1 (mixture of isomers) [Example 229, rac-(3aR,5r,6aS)-5-(2-fluorobenzyl)-2-(2-hydroxy-2-(4-hy-droxyphenyl)ethyl)octa-hydrocyclopenta[c] pyrrol-5-ol] |
| > 10 | ≥ 10 | Cc1ccc(NC(=O)N2C[C@@H]3C[C@@](O)(c4ccccc4)C[C@@H]3C2)c(C)c1 [Example 47] |
| < 0.1 | 0.0299 | Oc1ccc(C(O)CN2C[C@@H]3C[C@@](O)(Cc4ccc(F)cc4F)C[C@@H]3C2)nc1 (mixture of isomers) [Example 233, rac-(3aR,5r,6aS)-5-(2,4-difluorobenzyl)-2-(2-hydroxy-2-(5-hydroxypyridin-2-yl)ethyl)octahydrocyclo-penta[c]pyrrol-5-ol] |
| > 10 | ≥ 10 | Oc1ccc(C(O)CN2C[C@@H]3C[C@@](O)(Cc4ccccc4)C[C@@H]3C2)cn1 (mixture of isomers) [Example 181, rac-5-{2-[(3aR,5R,6aS)-5-benzyl-5-hydroxy-octahydrocyclopenta[c]pyrrol-2-yl]-1-hydroxyethyl}pyridin-2-ol] |
|  | 0.38 | Oc1ccc(C(O)CN2C[C@H]3CN(Cc4ccccc4)C[C@H]3C2)nc1 (mixture of isomers) [Example 329, rac-6-(2-(5-benzylhexahydropyrrolo [3,4-c]pyrrol-2(1H)-yl)-1-hydroxyethyl) pyridin-3-ol] |
|  | 0.114 | CS(=O)(=O)Nc1ccc(C(O)CN2C[C@@H]3C[C@@](O)(Cc4ccccc4)C[C@@H]3C2)nc1 (mixture of isomers) [Example 236, rac-N-(6-(2-((3aR,5r,6aS)-5-benzyl-5-hydroxyhexahydrocyclo-penta[c]pyrrol-2(1H)-yl)-1-hydroxyethyl)pyridin-3-yl)methanesulfonamide] |
|  | 0.0316 | CO[C@@]1(Cc2ccccc2)C[C@H]2CN(CC(O)c3ccc(O)cn3)C[C@H]2C1 (mixture of isomers) [Example 177, rac-6-(2-((3aR,5r,6aS)-5-benzyl-5-methoxyhexahydrocyclo-penta[c]pyrrol-2(1H)-yl)-1-hydroxyethyl)pyridin-3-ol] |
| > 10 | ≥ 10 | CC(=O)Nc1ccc(C(O)CN2C[C@@H]3C[C@@](O)(Cc4ccccc4)C[C@@H]3C2)cn1 (mixture of isomers) [Example 283, rac-N-(5-(2-((3aR,5r,6aS)-5-benzyl-5-hydroxyhexahydrocyclo-penta[c]pyrrol-2(1H)-yl)-1-hydroxyethyl)pyridin-2-yl)acetamide] |
|  | 0.0287 | COc1cccc(C[C@]2(O)C[C@H]3CN(CC(O)c4ccc(O)cc4)C[C@H]3C2)c1 (mixture of isomers) [Example 195, rac-(3aR,5r,6aS)-2-(2-hydroxy-2-(4-hydroxyphenyl)ethyl)-5-(3-methoxy-benzyl)octahydro-cyclopenta[c]pyrrol-5-ol] |
|  | 0.0415 | Cc1ccc(C[C@]2(O)C[C@H]3CN(CC(O)c4ccc(O)cc4)C[C@H]3C2)cc1 (mixture of isomers) [Example 182, rac-(3aR,5R,6aS)-2-[2-hydroxy-2-(4-hydroxyphenyl)ethyl]-5-[(4-methylphenyl)methyl]-octahydrocyclopenta[c] pyrrol-5-ol] |
| > 10 | ≥ 10 | OC(CN1C[C@@H]2C[C@@](O)(c3ccc(F)cc3)C[C@@H]2C1)c1cccc(C(F)(F)F)c1 (mixture of isomers) [Example 75, rac-5-(4-fluorophenyl)-2-{2-hydroxy-2-[3-(trifluoromethyl)phenyl]ethyl}-octahydrocyclopenta[c] pyrrol-5-ol] |
| > 10 | ≥ 10 | O=C(Nc1cccnc1)N1C[C@@H]2C[C@@](O)(c3ccc(F)cc3)C[C@@H]2C1 [Example 41] |
| < 0.1 |  | Cc1ccc(C[C@]2(O)C[C@H]3CN(CC(=O)c4ccc(O)cc4)C[C@H]3C2)cc1 [Example 179] |
|  | 0.047 | CS(=O)(=O)Nc1ccc(C(O)CN2C[C@@H]3C[C@@](O)(Cc4ccccc4)C[C@@H]3C2)cc1 (mixture of isomers) [Example 150, rac-N-(4-(2-((3aR,5r,6aS)-5-benzyl-5-hydroxyhexahydrocyclo-penta[c]pyrrol-2(1H)-yl)-1-hydroxy-ethyl)phenyl)meth-anesulfonamide] |
|  | 0.0696 | Oc1ccc(C(O)CN2C[C@@H]3C[C@@](O)(Cc4c(F)cccc4F)C[C@@H]3C2)nc1 (mixture of isomers) [Example 240, rac-6-{2-[(3aR,5R,6aS)-5-[(2,6-difluorophenyl)methyl]-5-hydroxy-octahydrocyclopenta[c]pyrrol-2-yl]-1-hydroxyethyl}pyridin-3-ol] |

| SMILES | IC50 [1] [µM] | IC50 [2] [µM] |
| --- | --- | --- |
| COc1cccc([C@]2(O)C[C@H]3CN(CC(O)c4ccccc4)C[C@H]3C2)c1 (mixture of isomers) [Example 60, rac-2-(2-hydroxy-2-phenylethyl)-5-(3-methoxyphenyl)-octahydrocyclopenta[c] pyrrol-5-ol] | > 10 | ≥ 10 |
| CC(C(=O)c1ccc(O)cc1)N1C[C@@H]2C[C@](F)(Cc3ccccc3)C[C@@H]2C1 (mixture of isomers) [Example 317, rac-2-((3aR,5s,6aS)-5-benzyl-5-fluoro-hexahydrocyclopen-ta[c]pyrrol-2(1H)-yl)-1-(4-hydroxyphenyl)propan-1-one] |  | 0.284 |
| Cc1ccccc1[C@]1(O)C[C@H]2CN(C(=O)Nc3cccc(Cl)c3)C[C@H]2C1 [Example 11] | > 10 |  |
| C[C@@H](NC(=O)N1C[C@@H]2C[C@@](O)(c3ccccc3)C[C@@H]2C1)c1ccc(Cl)cc1 [Example 20, N-[(1R)-1-(4-chlorophenyl)ethyl]-5-hydroxy-5-phenyl-octahydrocyclopenta[c] pyrrole-2-carboxamide] | > 10 |  |
| COc1cccc(NC(=O)N2C[C@@H]3C[C@@](O)(c4ccccc4)C[C@@H]3C2)c1 [Example 7] | > 10 | ≥ 10 |
| CC(C(=O)c1ccc(O)cc1)N1C[C@@H]2C[C@@](O)(CCc3ccccc3)C[C@@H]2C1 (mixture of isomers) [Example 319, rac-2-(5-hydroxy-5-phenethylhexa-hydrocyclo-penta[c]pyrrol-2(1H)-yl)-1-(4-hydroxyphenyl)propan-1-one] |  | 0.497 |
